Assay results: patent publication US6465527B1, “Iodinated hydrocarbon pesticide” (priority 1999, dated 2002)
Like-named read-outs stand apart in the source and are kept apart here.

Tests used:
[1] = tested on: German cockroach, Blattella germanica (L.); test: Fumigant toxicity in sealed glass jar, German cockroach; settings: in vivo
[2] = tested on: reniform nematode [Rotylenchulus reniformis]; test: Greenhouse nematicide test in cotton field soil, covered and uncovered pots (Experiment 6, FIGS. 1-4); assay type: in vivo; settings: for Control of the nematode in soil: covered and uncovered, all rates up to 12 mg per kg of soil
Text: FIGS. 2 and 3 illustrate the effectiveness of the diiodoethane and diiodopropane in eliminating the nematode (Rotylenchulus reniformis) from a soil sample. The “x” axis on the top row illustrates the quantity of iodinated hydrocarbon in milligrams per kilogram of soil. The next two rows below the “x” axis indicate the number of nematodes per 100 milliliters of soil, which is also indicated on the “y” axis. In FIG. 2, 1,2-diiodoethane was applied to the soil both in a covered state and an uncovered state. […] This is believed to be so because of the volatility of 1,2 diiodoethane, wherein the cover slows down the rate at which the compound evaporates into the atmosphere.
In this experiment, the pesticidal and herbicidal properties of volatile, low molecular weight, iodinated hydrocarbons were investigated. The relative nematicidal efficacy of iodomethane [C1], 1,2-diiodoethane [C2], 1,3-diiodopropane [C3] and 1,4-diiodobutane [C4] was studied in greenhouse experiments with soil from a cotton field infested with the reniform nematode [Rotylenchulus reniformis]. The chemicals were obtained from Aldrich, Milwaukee, U.S.A. Emulsifiable concentrates of the compounds were prepared by dilution in acetone containing an emulsogen.
(§1) For each chemical, an aqueous emulsion with 0.2% [w/w] of the compound was prepared and was applied to soil at rates of 2, 4, 6, 8, 10, and 12 mgs a.i./Kg soil. The treated soil was mixed and transferred to 1L capacity 10-cm diameter cylindrical pots. Pots with untreated soil [control] and with treated soil were placed on a greenhouse bench in a randomized complete block design. Each treatment was represented by 14 replications [pots], one half of which were left uncovered, and the other 7 were covered with polyethylene plastic bags [approx. 1 mil thickness] retained with a rubber around the pots. Soil samples for nematological analysis [salad bowl incubation technique] were collected 7-10 days after application of the materials. […] In covered pots, applications of the material were particularly effective resulting in 100% kill with the 10 and 12 mg rates. All dosages of C3 and C4 eliminated the nematode in covered pots. […] In a greenhouse experiment of similar design to the nematicide experiments, the C3 and C4 emulsions were applied at rates of 2-20 mgs a.i./Kg soil to a soil infested with crabgrass [Digitaria sanguinalis], purple nutsedge [Cyperus rotundus], Jimson weed [Datura stramonium] and a variety of other weed species. All pots were covered, and the number of weeds were counted 7, 14 and 30 days after application of the chemicals.

[3] = tested on: American cockroach, Periplaneta americana (L.); test: Fumigant toxicity in sealed glass jar, American cockroach; assay type: in vivo; settings: Periplaneta americana, inhaled or nasal, 8-36 adult males
Procedure: (§2) As shown below, Table 1 depicts the toxicity of both monoiodinated and diiodinated hydrocarbons to both the German and the American cockroach after 1 hour of exposure.
(§3) Shown in Table 2 is the toxicity of both monoiodinated and diiodinated hydrocarbons to the German and American cockroach and the Cowpea weevil after 24 hours of exposure.
(§4) In this experiment both the insecticidal and nematicidal properties of iodinated hydrocarbons were compared. In determining the insecticidal properties of the iodinated hydrocarbons, both American (Periplaneta americana) and German (Blattella germanica) cockroaches were used. Groups of cockroaches were confined in 0.95-liter glass jars with a small cotton ball. Exactly 50 μl of a test chemical was applied to the cotton ball and the jar was sealed. Knockdown, defined as the inability to walk in a coordinated manner, and mortality were assessed every 15 minutes for the first hour and hourly thereafter for 8 hours and again after 24 hours.

[4] = tested on: German cockroach, Blattella germanica (L.); test: Fumigant toxicity in sealed glass jar, German cockroach; assay type: in vivo; settings: Blattella germanica, inhaled or nasal, 30-60 adult males
Procedure: as §2, §3, §4

Meloidogyne arenaria [5] = test: Greenhouse nematicide test, diiodinated C2-C8 hydrocarbons in infested field soil (Experiments 1 and 2); assay type: in vivo; settings: rates ≧5.0 mg
Procedure: (§5) Additionally, the nematicidal properties of iodinated hydrocarbons were investigated in greenhouse experiments with field soil infested with Meloidogyne arenaria and Heterodera Glycines. Chemicals were added directly to infested solid at rates <100 mg/Kg soil. Treated soil was kept moist (approximately 60 percent field capacity) and uncovered for 7-10 days when samples were collected, and the pots were planted with ‘Brim’ soybean, Glycine max. […] 1,2-diiodoethane (C2), 1,3-diiodopropane (C3), 1,4-diiodobutane (C4), 1,5-diiodopentane (C5), 1,6-diiodohexane (C6), and […] were applied to soil rates of 2.5, 5.0, 7.5, and 10 mg/Kg soil. All rates of C2 and C8 were ineffective in reducing M. arenaria juvenile (J2) populations in preplant samples. This was also true for C2 and J2 populations of H. glycines; however, […] rates ≧5.0 mg suppressed J2 populations of H. glycines. […] H. glycines J2 numbers in final soil samples were generally inversely related to rates for C3-C8. […] Applications of C3-C6 to soil increased shoot weights in a manner directly related to dosages but only in a curvilinear pattern.
(§6) In this experiment, the nematicidal properties of various diiodinated hydrocarbons were compared. The nematicidal properties of diiodinated C2-C8 normal hydrocarbons was assessed in a greenhouse experiment with field soil infested with Meloidogyne arenaria [Ma] and Heterodera glycines [Hg]. 1,2-diiodoethane [C2], 1,3-diiodopropane [C3], 1,4-diiodobutane [C4], 1.5-diiodopentane [C5], 1,6-diiodohexane [C6] and 1,8-diiodooctane [C8] were applied to soil at rates of 2.5, 5.0, 7.5, and 10.0 mgs/kg soil. The potted soil was kept moist in a greenhouse for 10 days when preplant samples were collected for analysis, and the pots were planted with ‘Brim’ soybean [Glycine max]. After 7 weeks of growth, the plants were removed and final soil samples taken. Data was collected on weights of fresh roots and shoots, root galling by Ma, and numbers of nematodes in soil and roots. All rates of C2 and C8 were ineffective in reducing Ma juvenile [J2] populations in the preplant samples. This was also true for C2 and J2 populations of Hg; however, C8 rates ≧5.0 mg suppressed J2 populations of Hg. […] Hg J2 numbers in final soil samples were generally inversely related to rates for C3-C8. This pattern of suppression in J2 numbers was also applicable to Ma in the final soil samples but only for C3-C6. […] Applications of C3-C6 to soil increased shoot weights in a manner directly related to dosages but non-linear in pattern.

Heterodera glycines = test: as above; assay type: in vivo; settings: rates ≧5.0 mg
Procedure: as §5, §6

[6] = tested on: crabgrass [Digitaria sanguinalis], purple nutsedge [Cyperus rotundus], Jimson weed [Datura stramonium] and a variety of other weed species; test: Greenhouse herbicide test in weed-infested potted soil (Experiment 6, FIG. 6); assay type: in vivo; settings: up to 20 mg per kg of soil; one week
Procedure: Illustrated in FIGS. 6 and 7 are the herbicidal properties of the present invention. In FIG. 6, 1,3-diiodopropane and 1,4-diiodobutane were added to a soil sample contained in a pot, wherein the number of weeds were counted at the end of a one week period. The top row of the “x” axis plots the amount in milligrams of iodinated hydrocarbon added per kilogram of soil. The two rows below the top row depict the number of weeds found after a week, which is also plotted on the “y” axis. […] It is inferred that greater dosages would eliminate an even greater number of weeds. FIG. 7 depicts similar results except that the weed controlled was only one variety: crabgrass. […] It is also inferred that dosages larger than 20 mg of iodinated hydrocarbons would further eliminate an even greater number of crabgrass plants.
as §1

[7] = tested on: Cowpea weevil, Callosobruchus maculatus (F.); test: Fumigant toxicity, Cowpea weevil; assay type: in vivo; design: concentration or dose not given beside the values; settings: 30 adults
Procedure: as §3

[8] = tested on: cyst [Heterodera glycines]; test: Greenhouse nematicide test, iodinated C1-C3 hydrocarbons (Experiment 4); assay type: in vivo
Procedure: (§7) In this experiment, the nematicidal properties of low molecular weight iodinated hydrocarbons were investigated. The nematicidal properties of iodinated C1-C3 hydrocarbons were evaluated in greenhouse experiments with field soil infested with root-knot [Meloidogyne arenaria] and cyst [Heterodera glycines] nematodes. lodomethane, di-iodomethane, iodoethane, di-iodoethane, and 1-iodopropane were added to soil at rates of 0.1, 0.2 and 0.4 ml/kg soil.
(§8) The treated soil was kept moist for 10 days when soil samples were taken for nematode analysis and ‘Brim’ soybean [Glycine max] planted. Soybeans were allowed to grow for 8 weeks and then were removed from the soil to determine plant growth, root-knot indices and the number of galls generated by M arenaria. […] All compounds except 1-iodopropane increased fresh shoot weight when applied at ≧0.1 ml/kg soil.

[9] = tested on: American (Periplaneta americana) and German (Blattella germanica) cockroaches; test: Knockdown and mortality of cockroaches in sealed jar (both species); assay type: in vivo; settings: 50 μl on cotton ball in sealed 0.95-liter jar; for Knockdown of cockroaches: within 1 hour after treatment
Procedure: In this experiment both the insecticidal and nematicidal properties of iodinated hydrocarbons were compared. In determining the insecticidal properties of the iodinated hydrocarbons, both American (Periplaneta americana) and German (Blattella germanica) cockroaches were used. Groups of cockroaches were confined in 0.95-liter glass jars with a small cotton ball. Exactly 50 μl of a test chemical was applied to the cotton ball and the jar was sealed.

'Brim' soybean = test: Soybean growth and root condition in treated soil (Experiment 5); assay type: in vivo; settings: rates 100-400 mg/kg
Procedure: (§9) In this experiment, the nematotoxic properties of ethylene diiodide were compared to that of methyl iodide. The nematicidal efficacies of iodomethane [IM] and ethylene diiodide [EDI] were compared in a greenhouse experiment using field soil infested with Meloidogyne arenaria, Pratylenchus brachyurus, and Paratrichodorus christiei.
(§10) Each compound was added to soil at rates of 100, 200, 300 and 400 mg s/kg of soil. The soil was potted and kept moist for two weeks when it was planted with ‘Brim’ soybean after taking samples for nematological analyses. After eight weeks of growth, the plants were removed from the pots and soil samples taken. Data was collected on weights of fresh roots and shoots, general appearance of roots [root condition index] and root gall formation by M. arenaria. All EDI rates eliminated M. arenaria juveniles [J2] and populations of the other nematodes in the preplant samples; IM reduced J2 numbers by 50-70%, eliminated P. christiei with the 400 mg rate, but had no effect on P. brachyurus. […] The general appearance of roots was improved by EDI at rates ≦300 mg, but MI had no effect on the variable. […] M. arenaria J2 populations in roots were reduced by 60-70% by MI treatments, but the compound had no effect on root populations of P. brachyurus. MI had no effect on J2 populations in the final soil samples, although it suppressed P. christiei, by 50-70%.

[10] = tested on: root-knot [Meloidogyne arenaria]; test: Greenhouse nematicide test, iodinated C1-C3 hydrocarbons (Experiment 4); assay type: in vivo
Procedure: as §7, §8

Meloidogyne arenaria [11] = test: Greenhouse nematicide test, iodomethane vs ethylene diiodide (Experiment 5); assay type: in vivo
Procedure: as §9, §10

Pratylenchus brachyurus = test: as above; assay type: in vivo
Procedure: as §9, §10

[12] = tested on: Paratrichodorus christiei; test: as above; assay type: in vivo
Procedure: as §9, §10

[13] = 1 h exposure, read-out: % Mortality after 1 h exposure, American cockroach
[14] = 24 h exposure, read-out: % Mortality after 24 h exposure, American cockroach
[15] = 1 h exposure, read-out: % Mortality after 1 h exposure, German cockroach
[16] = 24 h exposure, read-out: % Mortality after 24 h exposure, German cockroach

## ICCCCI [1,4-diiodobutane]
[1]
  Repellency to German cockroaches: repellent
[2]; covered pots, all dosages (2-12 mgs a.i./Kg soil)
  Nematode in soil, covered pots: eliminated
[2]; uncovered and covered state
  Dose that eliminates the nematodes: about 10 mg per kg of soil
[2]; uncovered pots, 3 highest rates
  Mortality of the nematode: 100%
[3]; [13]
  mortality at 50 µL/jar: 0%
[3]; [14]
  mortality at 50 µL/jar: 33%
[4]; [15]
  mortality at 50 µL/jar: 0%
[4]; [16]
  mortality at 50 µL/jar: 70%
Meloidogyne arenaria [5]
  M. arenaria J2 populations in preplant samples: virtually eliminated
Heterodera glycines
  H. glycines J2 populations in preplant samples: virtually eliminated
[6]
  Number of weeds found in the pots as the dosage is increased (FIG. 6): steady decline
[7]
  % Mortality after 24 h exposure, Cowpea weevil: 47%

## ICI [diiodomethane]
[1]
  Repellency to German cockroaches: repellent
[3]; [13]
  mortality at 50 µL/jar: 39%
[3]; [14]
  mortality at 50 µL/jar: 100%
[4]; [15]
  mortality at 50 µL/jar: 40%
[4]; [16]
  mortality at 50 µL/jar: 100%
[8]; 10 days after application, all dosages (0.1, 0.2, 0.4 ml/kg soil)
  H. glycines J2 populations in soil: eliminated
[9]
  Time to 100 percent mortality of cockroaches: ≤ 4 h
  Knockdown of cockroaches: ≈ 40%
[7]
  % Mortality after 24 h exposure, Cowpea weevil: 100%

## CI [iodomethane, reference compound]
[2]; listed as C1
  Control of the nematode in soil: failed to control
[2]; listed as methyl iodide
  Control of the nematode in soil: ineffective
[3]; [13]
  mortality at 50 µL/jar: 100%
[3]; [14]
  mortality at 50 µL/jar: 100%
[4]; [15]
  mortality at 50 µL/jar: 100%
[4]; [16]
  mortality at 50 µL/jar: 100%
'Brim' soybean
  General appearance of roots [root condition index]: no effect
[10]; 0.4 ml rate
  Root-knot nematode juveniles in soil: eliminated
[10]; applied at ≧0.2 ml/kg soil
  Gall formation by M. arenaria: Significant suppression
[10]; rates lower than 0.4 ml
  Root-knot nematode juveniles in soil: ineffective
[8]; 0.4 ml rate
  H. glycines J2 populations in soil: reduced
[8]; rates lower than 0.4 ml
  H. glycines J2 populations in soil: ineffective
[9]
  Knockdown of cockroaches: 100%
[7]
  % Mortality after 24 h exposure, Cowpea weevil: 100%
Meloidogyne arenaria [11]; after eight weeks of growth
  Reduction of M. arenaria J2 populations in roots: 60-70%
Meloidogyne arenaria [11]; final soil samples
  J2 populations in the final soil samples: no effect
Meloidogyne arenaria [11]; rates 100-400 mg/kg of soil
  Reduction of M. arenaria J2 numbers in preplant samples: 50-70%
Meloidogyne arenaria [11]; soybean after eight weeks
  Galls in roots of plants from treated soil (M. arenaria): significant numbers
Pratylenchus brachyurus; after eight weeks of growth
  Root populations of P. brachyurus: no effect
Pratylenchus brachyurus; rates 100-400 mg/kg of soil
  P. brachyurus populations in preplant samples: no effect
[12]; 400 mg rate
  P. christiei populations in preplant samples: eliminated
[12]; final soil samples
  Suppression of P. christiei in final soil samples: 50-70%
